Measurements reported in patent US20260224688A1, “HELPER LIPIDS FOR NUCLEIC ACID DELIVERY” (SANOFI PASTEUR INC., priority 2023, published 2026).
“And” between values parts separate entries of the source, which are not always exact repeats. Identical values can stand only once.

Columns and labels:
[1] = test system: hEPO; experiment: IV delivery using phosphatidylcholine helper lipids (EPO expression); type: in vivo, female BALB/cJ mice; conditions: cationic lipid CL-0137, helper lipid 13.5 mol %; 0.017 μg EPO mRNA tail vein; 6 hours; DOPE = 1
Protocol: Lipid nanoparticles were formulated containing the four lipid components shown below, complexed with a hEPO messenger RNA. • Cationic lipid CL-0137, 40 mol % • Helper lipid, 13.5 mol % • Cholesterol, 44.8 mol % • DMG-PEG-2K (1,2-dimyristoyl-rac-glycero-3-methoxypolyethyleneglycol), 1.67 mol %
EPO expression studies were conducted with female BALB/cJ mice 6-8 weeks of age. Mice were dosed with 0.017 μg EPO mRNA LNPs in a volume of 5 ul by a single tail vein injection. Blood samples were taken 6 hours post injection and hEPO levels were measured in the blood serum of the mice using an ELISA assay according to the manufacture's protocol.

[2] = test system: hEPO; experiment: IM EPO expression of LNPs containing phosphatidylcholine helper lipids; type: in vivo, female BALB/cJ mice; conditions: PC/CL-C formulations, helper lipid 13.5 mol %, DOPE = 1
Protocol: EPO expression studies were conducted with female BALB/cJ mice 6-8 weeks of age. Mice were dosed with […] EPO mRNA in 30 μL of LNPs by a single intramuscular (IM) injection into the gastrocnemius leg muscle. Blood samples were taken 6 and 24 hours post injection and hEPO levels were measured in the blood serum of the mice using an ELISA assay according to the manufacture's protocol. WO2022/099003 A1 also describes an in vivo assay for intramuscular administration (e.g. on page 46, paragraph [00206]).
Lipid nanoparticles were formulated containing the four lipid components shown below, complexed with a hEPO messenger RNA. • Cationic lipid CL-C, 40 mol % • Helper lipid, 13.5 mol % • Cholesterol, 44.8 mol % • DMG-PEG-2K (1,2-dimyristoyl-rac-glycero-3-methoxypolyethyleneglycol), 1.67 mol %
EPO expression studies were performed as described above in Example 3.

[3] = test system: hEPO; experiment: IM EPO expression of LNPs containing new helper lipids (hEPO in serum by ELISA); type: in vivo, female BALB/cJ mice; conditions: for 6-h EPO / 24-h EPO: single IM injection; for 24-h EPO: serum 24 hours post injection
Summary of the method: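 Female BALB/cJ mice aged 6-8 weeks received one intramuscular gastrocnemius injection of […] hEPO mRNA in 30 μL LNPs. The LNPs contained cationic lipid, phospholipid helper, cholesterol and DMG-PEG-2K at 40:30:28.5:1.5 mol %. Serum hEPO was measured by ELISA at 6 and 24 h.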

[4] = Dynamic light scattering of lipid nanoparticles (size, PDI); type: physicochemical; conditions: LNP with cationic lipid CL-A
Summary of the method: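 LNPs of cationic lipid:DMG-PEG2000:cholesterol:helper lipid at 40:1.5:30:28.5 molar ratio, made by Process A. Diluted in 10% trehalose (about 0.1 mg/ml mRNA) and sized by DLS at 173° backscatter with a 633-nm laser, giving size and PDI.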

[5] = test system: hEPO; experiment: IV EPO expression of LNPs (tail vein injection); type: in vivo, female BALB/cJ mice; conditions: cationic lipid CL-0137, helper lipid 30 mol %; 0.017 μg EPO mRNA tail vein; 6 hours; DOPE = 1
Summary of the method: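 Female BALB/cJ mice (6-8 weeks) received a single tail-vein injection of 0.017 μg hEPO mRNA in LNPs (cationic lipid CL-0137/helper lipid/cholesterol/DMG-PEG-2K, 40:30:28.5:1.5 mol %). Serum hEPO was measured by ELISA on blood taken 6 h post-dose.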

[6] = mRNA encapsulation efficiency of lipid nanoparticles; type: physicochemical; conditions: LNP with cationic lipid CL-A
Summary of the method: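 Encapsulation by RiboGreen assay run with and without 0.1% Triton-X 100. LNPs made by ethanolic lipid mixing with acidic aqueous mRNA, molar ratio 40:1.5:30:28.5 (cationic lipid:DMG-PEG2000:cholesterol:helper lipid), ultrafiltered/diafiltered, stored at −80° C. Size/PdI by dynamic light scattering after dilution in 10% trehalose to about 0.1 mg/ml mRNA.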

| SMILES | Normalized mean IV EPO expression using PC LNPs [1] | Normalized Mean EPO expression [2] | other results |
| --- | --- | --- | --- |
| CCCCCCCCC(CCCCCCCC)OC(=O)CCCCCCC(=O)O[C@@H](COC(=O)CCCCC(=O)OC(CCCCCCCC)CCCCCCCC)COP(=O)(O)OCC[N+](C)(C)C [Compound 48, (S)-3-((6-(Heptadecan-9-yloxy)-6-oxohexanoyl)oxy)-2-((8-(heptadecan-9-yloxy)-8-oxooctanoyl)oxy)propyl (2-(trimethylammonio)ethyl) phosphate] | 1.08 | 1.1 | – |
| CCCCCCCCC(CCCCCCCC)OC(=O)CCCCCCCC(=O)OC[C@@H](COP(=O)(O)OCC[N+](C)(C)C)OC(=O)CCCCCCC(=O)OC(CCCCCCCC)CCCCCCCC [Compound 50, (S)-2-((8-(Heptadecan-9-yloxy)-8-oxooctanoyl)oxy)-3-((9-(heptadecan-9-yloxy)-9-oxononanoyl)oxy)propyl (2-(trimethylammonio)ethyl) phosphate] | 1.6 | 1 | – |
| CCCCCCCC/C=C\CCCCCCCC(=O)OC[C@H](COP(=O)(O)OCCN)OC(=O)CCCCCCC/C=C\CCCCCCCC [DOPE, dioleoylphosphatidylethanolamine, reference compound] | 1 | 1 | 6-h EPO ([3]; CL-A LNP, 0.1 μg EPO mRNA in 30 μL, serum 6 hours post injection): 26.23 ng/mL; 24-h EPO ([3]; CL-A LNP): 19.128 ng/mL; 6-h EPO ([3]; CL-B LNP, serum 6 hours post injection): 19.62 ng/mL; 24-h EPO ([3]; CL-B LNP): 15.03 ng/mL; 6-h EPO ([3]; CL-C LNP): 16.38 ng/mL; 6-h EPO ([3]; CL-C LNP, (6-h)): 20.96 ng/mL; Normalized Mean EPO expression ([3]; helper lipid CL-C formulations, IM, DOPE = 1): 1; Polydispersity Index (PDI) [4]: 0.06 and 0.100; Size ([4]; hEPO mRNA, 40:30:28.5:1.5): 129 nm and 119 nm; Normalized Mean IV EPO expression [5]: 1; Encapsulation efficiency (EE) [6]: 91% |
| CCCCCCCCC(CCCCCCCC)C(=O)OCCCCCC(=O)OC[C@@H](COP(=O)(O)OCC[N+](C)(C)C)OC(=O)CCCCCOC(=O)C(CCCCCCCC)CCCCCCCC [Compound 54, (S)-2,3-Bis((6-((2-octyldecanoyl)oxy)hexanoyl)oxy)propyl (2-(trimethylammonio)ethyl) phosphate] | 0.97 | 0.5 | – |
| CCCCCCCCCCCCCCCC(=O)OC[C@@H](COP(=O)(O)OCC[N+](C)(C)C)OC(=O)CCCCCCC(=O)OC(CCCCCCCC)CCCCCCCC [Compound 56, (S)-2-((8-(Heptadecan-9-yloxy)-8-oxooctanoyl)oxy)-3-(palmitoyloxy)propyl (2-(trimethylammonio)ethyl) phosphate] | 1.52 | 1 | – |
| CCCCCCCCC(CCCCCCCC)OC(=O)CCCCCCC(=O)OC[C@H](COP(=O)([O-])OCC[N+](C)(C)C)OC(=O)CCCCCCC(=O)OC(CCCCCCCC)CCCCCCCC [Compound 41, (R)-2,3-Bis((8-(heptadecan-9-yloxy)-8-oxooctanoyl)oxy)propyl (2-(trimethylammonio)ethyl) phosphate] | – | 1.3 | Normalized Mean IV EPO expression [5]: 1.7 |
| CCCCCCCCC(CCCCCCCC)OC(=O)CCCCCCCCC(=O)O[C@@H](COC(=O)CCCCCCC(=O)OC(CCCCCCCC)CCCCCCCC)COP(=O)(O)OCC[N+](C)(C)C [Compound 44, (S)-2-((10-(Heptadecan-9-yloxy)-10-oxodecanoyl)oxy)-3-((8-(heptadecan-9-yloxy)-8-oxooctanoyl)oxy)propyl (2-(trimethylammonio)ethyl) phosphate] | 1.32 | 1 | – |
| CCCCCCCCC(CCCCCCCC)OC(=O)CCCCCCC(=O)OC[C@@H](COP(=O)([O-])OCC[N+](C)(C)C)OC(=O)CCCCCCC(=O)OC(CCCCCCCC)CCCCCCCC [Compound 42, (S)-2,3-Bis((8-(heptadecan-9-yloxy)-8-oxooctanoyl)oxy)propyl (2-(trimethylammonio)ethyl) phosphate] | 1.16 | 1.1 | – |
| CCCCCCCCC(CCCCCCCC)OC(=O)CCCCCCCCC(=O)OC[C@@H](COP(=O)(O)OCC[N+](C)(C)C)OC(=O)CCCCCCC(=O)OC(CCCCCCCC)CCCCCCCC [Compound 52, (S)-3-((10-(Heptadecan-9-yloxy)-10-oxodecanoyl)oxy)-2-((8-(heptadecan-9-yloxy)-8-oxooctanoyl)oxy)propyl (2-(trimethylammonio)ethyl) phosphate] | 1.53 | 1 | – |
| CCCCCCCCCCCCCCCCCC(=O)OC[C@H](COP(=O)([O-])OCC[N+](C)(C)C)OC(=O)CCCCCCCCCCCCCCCCC [DSPC, distearoylphosphatidylcholine, reference compound] | 0.89 | – | – |
| CCCCCCCCC(CCCCCCCC)OC(=O)CCCCCCCC(=O)O[C@@H](COC(=O)CCCCCCC(=O)OC(CCCCCCCC)CCCCCCCC)COP(=O)(O)OCC[N+](C)(C)C [Compound 46, (S)-3-((8-(Heptadecan-9-yloxy)-8-oxooctanoyl)oxy)-2-((9-(heptadecan-9-yloxy)-9-oxononanoyl)oxy)propyl (2-(trimethylammonio)ethyl) phosphate] | 1.34 | 1.1 | – |
